Reference: patent publication US4622338A, “Substituted glutaric acid lactones in the treatment of hyperlipidemia” (G. D. Searle & Co., priority 1985, dated 1986)

Biological target: T1, rat liver microsomal HMGCoA reductase (Rattus norvegicus, UniProt P51639)
T1 construct: rat liver microsomal HMGCoA reductase; from tissue; host or cells: rat liver microsomes
T1 sequence (P51639 1-887): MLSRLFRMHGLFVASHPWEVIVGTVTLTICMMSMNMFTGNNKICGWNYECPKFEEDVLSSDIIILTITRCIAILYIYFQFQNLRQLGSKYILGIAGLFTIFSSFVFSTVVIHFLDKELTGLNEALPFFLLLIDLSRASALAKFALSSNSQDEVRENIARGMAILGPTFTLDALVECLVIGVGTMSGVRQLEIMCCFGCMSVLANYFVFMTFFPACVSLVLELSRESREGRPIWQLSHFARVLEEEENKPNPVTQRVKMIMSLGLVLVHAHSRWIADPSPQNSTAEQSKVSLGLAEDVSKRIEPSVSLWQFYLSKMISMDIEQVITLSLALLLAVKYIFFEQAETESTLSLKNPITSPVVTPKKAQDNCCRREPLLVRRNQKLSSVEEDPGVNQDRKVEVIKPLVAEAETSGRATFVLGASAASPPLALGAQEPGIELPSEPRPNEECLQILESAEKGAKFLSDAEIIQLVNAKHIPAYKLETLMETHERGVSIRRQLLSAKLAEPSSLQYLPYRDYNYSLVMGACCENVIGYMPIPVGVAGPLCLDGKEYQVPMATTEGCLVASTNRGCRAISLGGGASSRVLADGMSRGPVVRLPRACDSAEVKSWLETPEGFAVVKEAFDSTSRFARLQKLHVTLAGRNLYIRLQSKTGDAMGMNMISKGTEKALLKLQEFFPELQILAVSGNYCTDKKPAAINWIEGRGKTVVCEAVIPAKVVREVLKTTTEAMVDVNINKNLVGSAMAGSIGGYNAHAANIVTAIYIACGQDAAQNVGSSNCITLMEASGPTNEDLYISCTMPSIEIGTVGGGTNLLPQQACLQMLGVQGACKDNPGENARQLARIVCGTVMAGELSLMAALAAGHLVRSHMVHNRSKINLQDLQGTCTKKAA
Assay: in vitro inhibition of rat liver microsomal HMGCoA reductase
Format: biochemical
Details: read-out: % inhibition (HMG CoA reductase); for inhibition at 50 µM: at 5.0×10^-5 M
Procedure: The in vitro inhibitory activity of the present compounds is evaluated using rat liver microsomal HMGCoA reductase as described by Edwards, et al. J. Biol. Chem. 249, 2891 (1974). The IC50 is defined as the concentration required to inhibit the enzyme by 50% of control.
HMG derivaties are added to a preincubation mixture consisting of 0.1 M K PO4, PH7.2, 0.02 M glucose-6-PO4, 2.5 mM NADP, 0.7 units of glucose-6-PO4 dehydrogenase, 5 mM dithiothreitol, 50 mM mevalonic acid and approximately 50 μg of microsomal protein. Triplicate samples are preincubated for 15 min. at 37° C. in a volume of 1 ml. Incubation is started with 40 μM 14C-HMGCoA (0.1 ml) run for 15 min. at 37° C. and stopped with 5 N HCl (0.1 ml). Assay tubes are allowed to set for at least 30 min., then approximately 50,000 dpm of ^3 H-mevalonic acid are added to provide for extraction efficiency. Mevalonic acid is extracted with ether and the % ^14 C-HMGCoA incorporation determined for concurrent control and test reaction systems. Testing is done (first) with a range finding assay followed by a 4 or 5 point assay to find the IC50 value.

Row | Compound | inhibition at 50 µM [%] | inhibition at 75 µM (at 7.5×10^-5 M) [%]
1 | CC(CCCCCCCCC1CC(O)(CC(=O)O)CC(=O)O1)c1ccccc1 (stereo not drawn) [Example 2, 3-Carboxymethyl-3,5-dihydroxy-14-phenylpentadecanoic acid 1,5-Lactone] | 57 | –
2 | CC(CCCCCCCCC1CC(O)(CC(=O)O)CC(=O)O1)C1CCCCC1 (stereo not drawn) [Example 3, 3-Carboxymethyl-14-cyclohexyl-3,5-dihydroxypentadecanoic acid 1,5-lactone] | – | 49
3 | CCCCCCCCCCCCCC1CC(O)(CC(=O)O)CC(=O)O1 (stereo not drawn) [Example 1, 3-Carboxymethyl-3,5-Dihydroxyoctadecanoic Acid-1,5-Lactone] | 52 | –
